Measured values taken from ChEMBL document CHEMBL1201862, “PubChem BioAssay data set” (2004).
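Assay format: 96-well plates, 48-hour exposure. Here, GI50 denotes the concentration required for 50% inhibition of growth.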 Active and inactive are the calls of the source. Cut-off read from the data, not from the text of the source: active = GI50 up to about 1.1 µM and inactive = higher.

Legend:
Test in all cases: inhibition of tumour cell growth, NCI panel, 48 h
786-0 = tested on: 786-0
A549 = tested on: A549
EKVX = tested on: EKVX
HCC 2998 = tested on: HCC 2998
HCT-15 = tested on: HCT-15
IGROV-1 = tested on: IGROV-1
LOX IMVI = tested on: LOX IMVI
Malme-3M = tested on: Malme-3M
NCI-H226 = tested on: NCI-H226
NCI-H23 = tested on: NCI-H23
NCI-H522 = tested on: NCI-H522
OVCAR-3 = tested on: OVCAR-3
SF-295 = tested on: SF-295
SK-MEL-28 = tested on: SK-MEL-28
SK-MEL-5 = tested on: SK-MEL-5
SR = tested on: SR
TK-10 = tested on: TK-10
U-251 = tested on: U-251
UACC-257 = tested on: UACC-257
UACC-62 = tested on: UACC-62

SMILES	GI50 (786-0)	GI50 (A549)	GI50 (EKVX)	GI50 (HCC 2998)	GI50 (HCT-15)	GI50 (IGROV-1)	GI50 (LOX IMVI)	GI50 (Malme-3M)	GI50 (NCI-H226)	GI50 (NCI-H23)	GI50 (NCI-H522)	GI50 (OVCAR-3)	GI50 (SF-295)	GI50 (SK-MEL-28)	GI50 (SK-MEL-5)	GI50 (SR)	GI50 (TK-10)	GI50 (U-251)	GI50 (UACC-257)	GI50 (UACC-62)
CCN(CC)c1ccc(C(=C2C=CC(=[N+](CC)CC)C=C2)c2ccc(N(CC)CC)cc2)cc1	0.057 µM (active)	0.04 µM (active)	0.244 µM (active)	0.186 µM (active)	0.194 µM	0.146 µM (active)	0.0541 µM (active)	0.148 µM (active)	0.407 µM (active)	0.0773 µM (active)	0.113 µM (active)	0.0393 µM (active)	0.0483 µM (active)	0.489 µM (active)	0.094 µM (active)	0.0843 µM (active)	0.214 µM (active)	0.0412 µM (active)	0.132 µM (active)	0.219 µM (active)
O=C(Nc1ccc(S(=O)(=O)Nc2ncccn2)cc1)c1c2ccccc2nc2ccccc12	> 100 µM (inactive)	> 100 µM (inactive)	> 100 µM (inactive)	> 100 µM (inactive)	> 100 µM	> 100 µM (inactive)	> 100 µM (inactive)	> 100 µM (inactive)	< 0.01 µM (active)	> 100 µM (inactive)	> 100 µM (inactive)	> 100 µM (inactive)	> 100 µM (inactive)	> 100 µM (inactive)	> 100 µM (inactive)	55.7 µM (inactive)	> 100 µM (inactive)	> 100 µM (inactive)	> 100 µM (inactive)	> 100 µM (inactive)
CC1c2cc(c3c(c2O)CN([C@@H](C)C2CCCCC2)CO3)C(C)c2cc(c3c(c2O)CN([C@@H](C)C2CCCCC2)CO3)C(C)c2cc(c3c(c2O)CN([C@@H](C)C2CCCCC2)CO3)C(C)c2cc1c1c(c2O)CN([C@@H](C)C2CCCCC2)CO1 (stereo not given in full)	1.13 µM (inactive)	1.84 µM (inactive)	1.06 µM (active)	1.45 µM (inactive)	1.51 µM	1.32 µM (inactive)	0.681 µM (active)	1.45 µM (inactive)	0.979 µM (active)	1.5 µM (inactive)	0.607 µM (active)	1.71 µM (inactive)	1.8 µM (inactive)	1.76 µM (inactive)	1.84 µM (inactive)	0.197 µM (active)	1.73 µM (inactive)	0.964 µM (active)	1.66 µM (inactive)	1.8 µM (inactive)
CCOC(=O)C1=[N+]([O-])OC2=C(O)CCCC21 (stereo not given)	> 100 µM (inactive)	> 100 µM (inactive)	> 100 µM (inactive)	> 100 µM (inactive)	> 100 µM	> 100 µM (inactive)	> 100 µM (inactive)	> 100 µM (inactive)	> 100 µM (inactive)	> 100 µM (inactive)	> 100 µM (inactive)	> 100 µM (inactive)	> 100 µM (inactive)	> 100 µM (inactive)	> 100 µM (inactive)	> 100 µM (inactive)	> 100 µM (inactive)	> 100 µM (inactive)	> 100 µM (inactive)	> 100 µM (inactive)
C=CCN1C(=O)CC1N(CC=C)S(=O)(=O)c1ccc(C)cc1 (stereo not given)	> 100 µM (inactive)	> 100 µM (inactive)	> 100 µM (inactive)	> 100 µM (inactive)	> 100 µM	> 100 µM (inactive)	> 100 µM (inactive)	> 100 µM (inactive)	> 100 µM (inactive)	> 100 µM (inactive)	> 100 µM (inactive)	> 100 µM (inactive)	> 100 µM (inactive)	> 100 µM (inactive)	> 100 µM (inactive)	82.8 µM (inactive)	> 100 µM (inactive)	> 100 µM (inactive)	> 100 µM (inactive)	> 100 µM (inactive)
O=C1CCCC[C@H]1[C@H]1CCC[C@@H]([C@H]2CCCCC2=O)C1=O	> 100 µM (inactive)	> 100 µM (inactive)	> 100 µM (inactive)	> 100 µM (inactive)	> 100 µM	> 100 µM (inactive)	> 100 µM (inactive)	> 100 µM (inactive)	> 100 µM (inactive)	> 100 µM (inactive)	> 100 µM (inactive)	> 100 µM (inactive)	> 100 µM (inactive)	> 100 µM (inactive)	> 100 µM (inactive)	> 100 µM (inactive)	> 100 µM (inactive)	> 100 µM (inactive)	> 100 µM (inactive)	> 100 µM (inactive)
O=[N+]([O-])c1ccc(Sc2c3ccccc3nc3ccccc23)cn1	2.59 µM (inactive)	> 100 µM (inactive)	> 57.4 µM (inactive)	45.6 µM (inactive)	9.55 µM	32.4 µM (inactive)	13 µM (inactive)	3.24 µM (inactive)	> 100 µM (inactive)	15.9 µM (inactive)	4.08 µM (inactive)	8.11 µM (inactive)	> 100 µM (inactive)	24.7 µM (inactive)	35.1 µM (inactive)	3.12 µM (inactive)	10.1 µM (inactive)	> 44.2 µM (inactive)	15.5 µM (inactive)	18.7 µM (inactive)
CCOC(CN(C)C(=O)Nc1ccc(Cl)c(Cl)c1)OCC	> 10 µM (inactive)	> 10 µM (inactive)	> 10 µM (inactive)	> 10 µM (inactive)	> 10 µM	> 10 µM (inactive)	> 10 µM (inactive)	> 10 µM (inactive)	> 10 µM (inactive)	> 10 µM (inactive)	> 10 µM (inactive)	> 10 µM (inactive)	> 10 µM (inactive)	> 10 µM (inactive)	> 10 µM (inactive)	> 10 µM (inactive)	> 10 µM (inactive)	> 10 µM (inactive)	> 10 µM (inactive)	> 10 µM (inactive)
Cc1nc2ccccc2n1CCc1nc2ccccc2[nH]1	> 100 µM (inactive)	> 100 µM (inactive)	> 100 µM (inactive)	> 100 µM (inactive)	> 100 µM	> 100 µM (inactive)	> 100 µM (inactive)	> 100 µM (inactive)	31.6 µM (inactive)	> 100 µM (inactive)	> 100 µM (inactive)	> 100 µM (inactive)	> 100 µM (inactive)	> 100 µM (inactive)	> 100 µM (inactive)	> 100 µM (inactive)	> 100 µM (inactive)	> 100 µM (inactive)	> 100 µM (inactive)	> 100 µM (inactive)
C/C(=C\[Si](C)(C)c1ccco1)C(C)(O)[C@H](C)O (stereo not given in full)	44.9 µM (inactive)	48.2 µM (inactive)	42.6 µM (inactive)	34.8 µM (inactive)	31.6 µM	> 100 µM (inactive)	> 100 µM (inactive)	52.8 µM (inactive)	64.9 µM (inactive)	30.2 µM (inactive)	30.3 µM (inactive)	54.5 µM (inactive)	49.4 µM (inactive)	> 100 µM (inactive)	40.7 µM (inactive)	33.8 µM (inactive)	97.3 µM (inactive)	> 100 µM (inactive)	24.6 µM (inactive)	> 100 µM (inactive)
Nc1c2c(nc3cc(F)c(F)cc13)CCC2	45.6 µM (inactive)	42.2 µM (inactive)	52.1 µM (inactive)	14.5 µM (inactive)	45.4 µM	45.7 µM (inactive)	36.6 µM (inactive)	41.7 µM (inactive)	33.3 µM (inactive)	99.5 µM (inactive)	72.8 µM (inactive)	> 100 µM (inactive)	41.2 µM (inactive)	52.7 µM (inactive)	42.7 µM (inactive)	24.2 µM (inactive)	26.4 µM (inactive)	56.6 µM (inactive)	44.4 µM (inactive)	82.4 µM (inactive)
CC(C)OC(=O)OCSc1ccccc1/N=C/c1cccc([N+](=O)[O-])c1	> 10 µM (inactive)	> 10 µM (inactive)	> 10 µM (inactive)	> 10 µM (inactive)	> 10 µM	> 10 µM (inactive)	> 10 µM (inactive)	> 10 µM (inactive)	> 10 µM (inactive)	> 10 µM (inactive)	> 10 µM (inactive)	> 10 µM (inactive)	> 10 µM (inactive)	> 10 µM (inactive)	> 10 µM (inactive)	> 10 µM (inactive)	> 10 µM (inactive)	> 10 µM (inactive)	> 10 µM (inactive)	> 10 µM (inactive)
Clc1ccc(/C=N/C23CC4CC(CC(C4)C2)C3)c(Cl)c1	> 10 µM (inactive)	> 10 µM (inactive)	> 10 µM (inactive)	> 10 µM (inactive)	> 10 µM	> 10 µM (inactive)	> 10 µM (inactive)	> 10 µM (inactive)	> 10 µM (inactive)	> 10 µM (inactive)	> 10 µM (inactive)	> 10 µM (inactive)	> 10 µM (inactive)	> 10 µM (inactive)	> 10 µM (inactive)	3.5 µM (inactive)	> 10 µM (inactive)	> 10 µM (inactive)	> 10 µM (inactive)	> 10 µM (inactive)
COc1cccc2c1C(=O)c1c(O)c3c(c(O)c1C2=O)CC(O)(C(C)=O)CC3OC1CC([N+](C)(C)C)C(O)C(C)O1 (stereo not given)	> 100 µM (inactive)	> 100 µM (inactive)	> 100 µM (inactive)	> 100 µM (inactive)	> 100 µM	42.1 µM (inactive)	51.9 µM (inactive)	> 100 µM (inactive)	80.7 µM (inactive)	72.9 µM (inactive)	31.3 µM (inactive)	> 100 µM (inactive)	> 100 µM (inactive)	> 100 µM (inactive)	> 100 µM (inactive)	5.24 µM (inactive)	> 100 µM (inactive)	55.1 µM (inactive)	> 100 µM (inactive)	> 100 µM (inactive)
